The data set can be described thus: clinical. The following applies: male, human, in vivo.

Method: This was an open-label, randomized, two-treatment, two-period, two-sequence, crossover study under fasted conditions comparing the test and reference products. The study was conducted with 16 healthy, non-tobacco-, non-nicotine-using, adult male subjects. In one period of the study, one (1) TBZ patch, 8 mg/96 hr was applied to the subject's upper outer left arm and kept in place for 96 hours following an overnight fast of at least 10 hours. In the other study period, 1×12.5 mg Tetrabenazine Tablet (Lupin) was administered every 8 hours from Day 1 through Day 4 for a total daily dose of 37.5 mg and a total dose of 150 mg for the 12 doses over the 4 days. […]
Blood samples were collected pre-dose and at intervals over 120 hours after dosing (0-hour) with the study drug in each study period. Samples were analyzed by the bioanalytical laboratory for those subjects who were dosed with at least one of the study products (Treatment A or B).
The plasma concentrations of TBZ (RR and SS isomers) and its active metabolites (RRR, SSS, SRR and RSS) were measured by a fully validated analytical procedure. […]
The plasma concentrations of TBZ (RR and SS isomers) and its HTBZ metabolites (RRR, SSS, SRR and RSS) were measured by a fully validated analytical procedure for those subjects who were dosed with at least one of the study products (Treatment A or B).

The term half-life denotes the time needed for the level to fall by half in the phase considered. High values mean slow loss, low ones fast loss. Take `COc1cc2c(cc1OC)[C@H]1CC(=O)[C@H](CC(C)C)CN1CC2` [R,R-tetrabenazine, (3R,11bR)-1,3,4,6,7,11b-Hexahydro-9,10-dimethoxy-3-(2-methylpropyl)-2H-benzo[a]quinolizin-2-one]: the half-life was approximately 8.5 h.

For the origin of these results see US20220362165A1, “TETRABENAZINE TRANSDERMAL DELIVERY DEVICE” (SHINKEI THERAPEUTICS LLC, priority 2019, published 2022).
